Activity calls are given as the source filed them. No rule for the calls is given here.
Test system: rodent carcinogenicity bioassays, tumor incidence
Test: CCRIS carcinogenicity studies
Outline: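 Archive of carcinogenicity, mutagenicity, tumor promotion and tumor inhibition results drawn from journals, NCI reports and other sources, expert-reviewed; covers 1985-2011 and is no longer updated.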

Question: For c1cc2ccc3cc4cccc5ccc6cc(c1)c2c3c6c54, which carcinogen call (Species: MOUSE, Route: DERMAL, Tumor Site: Type of Lesion: INTEGUMENTARY SYSTEM (SKIN)) is on record?
Answer: active; positive

Question: And the carcinogen call (Species: RAT, Strain/Sex: OSBORNE-MENDEL/FEMALE, Route: LUNG IMPLANT, Dose: 0, 0.16, 0.83 MG IN BEESWAX/TRIOCTANOIN (STUDY DURATION: LIFETIME), Dose: 0, 0.16, 0.83 MG IN BEESWAX/TRIOCTANOIN (STUDY DURATION: LIFETIME), Tumor Site: Type of Lesion: LUNG: EPIDERMOID CARCINOMA)?
Answer: active; positive

Question: Which results are given for CCOP(=O)(SC(C)CC)N1CCSC1=O (stereo unspecified)?
Answer: carcinogen call (Species: Mouse, Strain/Sex: CD-1/Female (60/Group), Route: Oral, Dose: 0, 1.11, 3.20, 10.4, 39.2 mg/kg/day of 93.3% fosthiazate in diet for 104 wk, study duration 102 wk, Dose: 0, 1.11, 3.20, 10.4, 39.2 mg/kg/day of 93.3% fosthiazate in diet for 104 wk, study duration 102 wk): inactive; negative; carcinogen call (Species: Mouse, Strain/Sex: CD-1/Male (60/Group), Route: Oral, Dose: 0, 1.02, 3.10, 10.3, 30.5 mg/kg/day of 93.3% fosthiazate in diet for 104 wk, study duration 102 wk, Dose: 0, 1.02, 3.10, 10.3, 30.5 mg/kg/day of 93.3% fosthiazate in diet for 104 wk, study duration 102 wk): inactive; negative; carcinogen call (Species: Rat, Strain/Sex: CD/Female (50/Group), Route: Oral, Dose: 0, 0.051, 0.50, 2.45, 11.69 mg/kg/day of 93.3% fosthiazate in diet for 104 wk, study duration 104 wk, Dose: 0, 0.051, 0.50, 2.45, 11.69 mg/kg/day of 93.3% fosthiazate in diet for 104 wk, study duration 104 wk): inactive; negative; carcinogen call (Species: Rat, Strain/Sex: CD/Male (50/Group), Route: Oral, Dose: 0, 0.039, 0.38, 1.94, 8.34 mg/kg/day of 93.3% fosthiazate in diet for 104 wk, study duration 104 wk, Dose: 0, 0.039, 0.38, 1.94, 8.34 mg/kg/day of 93.3% fosthiazate in diet for 104 wk, study duration 104 wk): inactive; negative

Source: PubChem BioAssay AID1259411 (Chemical Carcinogenesis Research Information System (CCRIS), 2018)
